Read-outs that look alike come from different tables or passages of the source.
Experiments:
C2C12 myotubes = conditions: for Viability (composite Z-score): normalized score vs mock-treated (DMSO) wells
cytochrome c = format: cell-based, mouse; conditions: for cyt c (composite Z-score): normalized score vs mock-treated (DMSO) wells
nuOXPHOS transcripts = format: cell-based, mouse; conditions: for nucOX (composite Z-score): normalized score vs mock-treated (DMSO) wells
[1] = tested on: cellular dehydrogenase activity; conditions: for MTT (composite Z-score): normalized score vs mock-treated (DMSO) wells
OXPHOS gene expression = format: cell-based, mouse; conditions: for GE-HTS (composite Z-score): normalized score vs mock-treated (DMSO) wells
mtOXPHOS transcripts = format: cell-based, mouse; conditions: for mitoOX (composite Z-score): normalized score vs mock-treated (DMSO) wells
[2] = tested on: mitochondrial membrane potential; format: cell-based, mouse; conditions: for ΔΨm (composite Z-score): normalized score vs mock-treated (DMSO) wells
reactive oxygen species = format: cell-based, mouse; conditions: for ROS (composite Z-score): normalized score vs mock-treated (DMSO) wells
[3] = composite Z-score vs mock-treated (DMSO) wells, concentration of each compound in μM
[4] = normalized composite Z-score vs mock-treated (DMSO) wells, Conc 20 μM
[5] = composite Z-score vs DMSO, Conc 20 μM
[6] = composite Z-score vs mock-treated (DMSO) wells, Conc 20 μM
[7] = 13.86 μM, composite Z-score vs DMSO
[8] = 20 μM, composite Z-score vs DMSO
[9] = composite Z-score vs DMSO wells, Conc 20 μM
[10] = Table 4, C2C12 myotubes, 48 h, composite Z-score

CCOC(=O)[C@H](CCc1ccccc1)N[C@@H](C)C(=O)N1[C@H](C(=O)O)C[C@H]2CCCC[C@@H]21 [trandoapril]
Viability (C2C12 myotubes; [3]): 0.694 | cyt c (cytochrome c; [3]): 0.687 | nucOX (nuOXPHOS transcripts; [3]): −1.466 | MTT [1, 3]: −0.684 | GE-HTS (OXPHOS gene expression; [3]): −1.375 | mitoOX (mtOXPHOS transcripts; [3]): −0.884 | ΔΨm [2, 3]: −0.210 | ROS (reactive oxygen species; [3]): 0.572

CC1C(=NO)CC2CC1C2(C)C (stereo not drawn) [3-pinanone oxime]
Viability (C2C12 myotubes; [4]): −0.344 | cyt c (cytochrome c; [4]): 0.014 | nucOX (nuOXPHOS transcripts; [4]): 0.031 | MTT [1, 4]: −0.210 | GE-HTS (OXPHOS gene expression; [4]): 0.141 | mitoOX (mtOXPHOS transcripts; [4]): 0.386 | ΔΨm [2, 4]: −0.415 | ROS (reactive oxygen species; [4]): −0.152

COc1ccc(-c2cc(=O)c3c(O)cc(O)c(-c4cc(-c5cc(=O)c6c(O)cc(O)cc6o5)ccc4OC)c3o2)cc1 [isoginkgetin]
Viability (C2C12 myotubes; [4]): 2.182 | cyt c (cytochrome c; [4]): −0.400 | nucOX (nuOXPHOS transcripts; [4]): −0.318 | MTT [1, 4]: −1.024 | GE-HTS (OXPHOS gene expression; [4]): −0.589 | mitoOX (mtOXPHOS transcripts; [4]): −1.087 | ΔΨm [2, 4]: −4.387 | ROS (reactive oxygen species; [4]): 1.106

CNC(=O)ON=C(C)SC [methomyl]
Viability (C2C12 myotubes; [5]): 1.361 | cyt c (cytochrome c; [5]): −0.007 | nucOX (nuOXPHOS transcripts; [5]): −0.805 | MTT [1, 5]: −1.481 | GE-HTS (OXPHOS gene expression; [5]): −0.703 | mitoOX (mtOXPHOS transcripts; [5]): −0.317 | ΔΨm [2, 5]: −0.493 | ROS (reactive oxygen species; [5]): 0.231

Cc1ccc2c(c1)CC[C@H]1CC(=O)CC[C@]21C
Viability (C2C12 myotubes; [6]): −0.093 | cyt c (cytochrome c; [6]): 0.009 | nucOX (nuOXPHOS transcripts; [6]): 0.870 | MTT [1, 6]: −2.132 | GE-HTS (OXPHOS gene expression; [6]): 0.903 | mitoOX (mtOXPHOS transcripts; [6]): 0.748 | ΔΨm [2, 6]: −0.470 | ROS (reactive oxygen species; [6]): 0.072

CCCCN1CCCCC1C(=O)Nc1c(C)cccc1C (stereo not drawn) [bupivacaine]
Viability (C2C12 myotubes; [7]): −0.663 | Viability (C2C12 myotubes; [8]): −1.202 | cyt c (cytochrome c; [7]): −0.058 | cyt c (cytochrome c; [8]): 0.190 | nucOX (nuOXPHOS transcripts; [7]): −0.316 | nucOX (nuOXPHOS transcripts; [8]): 0.548 | MTT [1, 7]: −1.440 | MTT [1, 8]: −0.841 | GE-HTS (OXPHOS gene expression; [7]): −0.227 | GE-HTS (OXPHOS gene expression; [8]): 0.392 | mitoOX (mtOXPHOS transcripts; [7]): 0.002 | mitoOX (mtOXPHOS transcripts; [8]): 0.009 | ΔΨm [2, 7]: −0.938 | ΔΨm [2, 8]: 0.084 | ROS (reactive oxygen species; [7]): 0.545 | ROS (reactive oxygen species; [8]): 0.801

[H]/N=C(/N)NS(=O)(=O)c1ccc(N)cc1 [sulfaguanidine]
Viability (C2C12 myotubes; [9]): −0.691 | cyt c (cytochrome c; [9]): 0.147 | nucOX (nuOXPHOS transcripts; [9]): −0.522 | MTT [1, 9]: −0.421 | GE-HTS (OXPHOS gene expression; [9]): −0.571 | mitoOX (mtOXPHOS transcripts; [9]): −0.556 | ΔΨm [2, 9]: 0.217 | ROS (reactive oxygen species; [9]): 0.902

COc1cc2c(cc1-c1coc3c4c(c(OC)cc3c1=O)OC(C)(C)C=C4)OCO2 [ichthynone, reference compound]
Viability (composite Z-score) (C2C12 myotubes; Conc 20 μM): 0.234 | cyt c (composite Z-score) (cytochrome c; Conc 20 μM): 0.001 | nucOX (composite Z-score) (nuOXPHOS transcripts; Conc 20 μM): −0.088 | MTT (composite Z-score) ([1]; Conc 20 μM): −0.681 | GE-HTS (composite Z-score) (OXPHOS gene expression; Conc 20 μM): −0.217 | mitoOX (composite Z-score) (mtOXPHOS transcripts; Conc 20 μM): −0.466 | ΔΨm (composite Z-score) ([2]; Conc 20 μM): −0.325 | ROS (composite Z-score) (reactive oxygen species; Conc 20 μM): 1.842

CC1=CC(=O)C2=C(C)C[C@H](O)[C@@H]3[C@H](OC(=O)[C@H]3C)[C@H]12 [austricine]
Viability (composite Z-score) (C2C12 myotubes; Conc 20 μM): −0.394 | cyt c (composite Z-score) (cytochrome c; Conc 20 μM): 0.842 | nucOX (composite Z-score) (nuOXPHOS transcripts; Conc 20 μM): 0.081 | MTT (composite Z-score) ([1]; Conc 20 μM): −1.268 | GE-HTS (composite Z-score) (OXPHOS gene expression; Conc 20 μM): 0.165 | mitoOX (composite Z-score) (mtOXPHOS transcripts; Conc 20 μM): 0.349 | ΔΨm (composite Z-score) ([2]; Conc 20 μM): −0.711 | ROS (composite Z-score) (reactive oxygen species; Conc 20 μM): 0.665

COc1cccc(C=CC(=O)O)c1C(C)C [2-isopropyl-3-methoxycinnamic acid]
Viability (C2C12 myotubes; [4]): 0.040 | cyt c (cytochrome c; [4]): 0.274 | nucOX (nuOXPHOS transcripts; [4]): 0.153 | MTT [1, 4]: −2.002 | GE-HTS (OXPHOS gene expression; [4]): 0.153 | mitoOX (mtOXPHOS transcripts; [4]): 0.071 | ΔΨm [2, 4]: −0.155 | ROS (reactive oxygen species; [4]): 0.433

Cc1cc(O)c2c(c1O)C(=O)c1c(O)cc(C)c(O)c1C2=O [1,4,5,8-tetrahydroxy-2,6-dimethylanthroquinone, reference compound]
Viability (C2C12 myotubes; [10]): −0.853 | Viability (C2C12 myotubes; [5]): −0.853 | cyt c (cytochrome c; [5]): 0.005 | nucOX (nuOXPHOS transcripts; [5]): −1.178 | MTT [1, 10]: −0.344 | MTT [1, 5]: −0.344 | GE-HTS (OXPHOS gene expression; [5]): −1.123 | mitoOX (mtOXPHOS transcripts; [5]): −0.739 | ΔΨm ([2]; Table 4, C2C12 myotubes, 48 h, JC-1, composite Z-score): −0.662 | ΔΨm [2, 5]: −0.662 | ROS (reactive oxygen species; [10]): 0.772 | ROS (reactive oxygen species; [5]): 0.772

CC[C@H]1OC(=O)[C@H](C)[C@@H](O[C@H]2C[C@@](C)(OC)[C@@H](O)[C@H](C)O2)[C@H](C)[C@@H](O[C@@H]2O[C@H](C)C[C@H](N(C)C)[C@H]2O)[C@](C)(OC)C[C@@H](C)C(=O)[C@H](C)[C@@H](O)[C@]1(C)O [clarithromycin]
Viability (C2C12 myotubes; [5]): −0.763 | cyt c (cytochrome c; [5]): −1.095 | nucOX (nuOXPHOS transcripts; [5]): −2.046 | MTT [1, 5]: −1.086 | GE-HTS (OXPHOS gene expression; [5]): −2.161 | mitoOX (mtOXPHOS transcripts; [5]): −1.928 | ΔΨm [2, 5]: 0.434 | ROS (reactive oxygen species; [5]): 0.293
